Laboratory results from patent US20190290892A1, “METHODS OF DETERMINING DOSING OF A THERAPEUTIC AGENT BASED ON MEASURED LEVELS OF A METABOLITE” (Clear Creek Bio, Inc., priority 2018, published 2019).

Legend:
[1] = tested on: advanced lung cancer; conditions: Gralla, weekly rapid iv injection from 5 mg/kg (200 mg/m^2), previously treated patients with advanced lung cancer; cited from earlier work
[2] = Adverse events in subjects receiving brequinar intravenously once a week; type: in vivo, human; conditions: i.v. once a week, 209 subjects
[3] = Burris, 650 mg/m^2 brequinar (days 1, 8 and 15) with 75 mg/m^2 cisplatin (day 1); cited from earlier work

## NC(=O)c1[nH]nc([C@@H]2O[C@H](CO)[C@@H](O)[C@H]2O)c1O [pyrazofurin, 5-[(2S,3R,4S,5R)-3,4-dihydroxy-5-(hydroxymethyl)oxolan-2-yl]-4-hydroxy-1H-pyrazole-3-carboxamide]
[1]
  therapeutic activity: little therapeutic value as a single agent

## Cc1c(-c2ccc(-c3ccccc3F)cc2)nc2ccc(F)cc2c1C(=O)O [brequinar, 6-fluoro-2-(2′-fluoro-1,1′ biphenyl-4-yl)-3-methyl-4-quinoline carboxylic acid]
[2]
  All Body Systems, No. of Patients Experiencing the AE, 5y Max Grade 1: 36
  All Body Systems, No. of Patients Experiencing the AE, 5y Max Grade 2: 76
  All Body Systems, No. of Patients Experiencing the AE, 5y Max Grade 3: 55
  All Body Systems, No. of Patients Experiencing the AE, 5y Max Grade 4: 35
  Anemia, No. of Patients: 90
  Anemia, No. of Patients Experiencing the AE, 5y Max Grade 1: 14
  Anemia, No. of Patients Experiencing the AE, 5y Max Grade 2: 48
  Anemia, No. of Patients Experiencing the AE, 5y Max Grade 3: 23
  Anemia, No. of Patients Experiencing the AE, 5y Max Grade 4: 5
  Anorexia, No. of Patients: 15
  Anorexia, No. of Patients Experiencing the AE, 5y Max Grade 1: 11
  Anorexia, No. of Patients Experiencing the AE, 5y Max Grade 2: 3
  Anorexia, No. of Patients Experiencing the AE, 5y Max Grade 3: 1
  Anorexia, No. of Patients Experiencing the AE, 5y Max Grade 4: 0
  Anorexia, Percent: 7.2%
  Constipation, No. of Patients: 10
  Constipation, No. of Patients Experiencing the AE, 5y Max Grade 1: 6
  Constipation, No. of Patients Experiencing the AE, 5y Max Grade 2: 2
  Constipation, No. of Patients Experiencing the AE, 5y Max Grade 3: 1
  Constipation, No. of Patients Experiencing the AE, 5y Max Grade 4: 0
  Constipation, Percent: 4.8%
  Diarrhea, No. of Patients: 77
  Diarrhea, No. of Patients Experiencing the AE, 5y Max Grade 1: 43
  Diarrhea, No. of Patients Experiencing the AE, 5y Max Grade 2: 21
  Diarrhea, No. of Patients Experiencing the AE, 5y Max Grade 3: 10
  Diarrhea, No. of Patients Experiencing the AE, 5y Max Grade 4: 3
  Dyspepsia, No. of Patients: 7
  Dyspepsia, No. of Patients Experiencing the AE, 5y Max Grade 1: 6
  Dyspepsia, No. of Patients Experiencing the AE, 5y Max Grade 2: 1
  Dyspepsia, No. of Patients Experiencing the AE, 5y Max Grade 3: 0
  Dyspepsia, No. of Patients Experiencing the AE, 5y Max Grade 4: 0
  Dyspepsia, Percent: 3.3%
  Fatigue, No. of Patients: 33
  Fatigue, No. of Patients Experiencing the AE, 5y Max Grade 1: 23
  Fatigue, No. of Patients Experiencing the AE, 5y Max Grade 2: 8
  Fatigue, No. of Patients Experiencing the AE, 5y Max Grade 3: 2
  Fatigue, No. of Patients Experiencing the AE, 5y Max Grade 4: 0
  Fever, No. of Patients: 11
  Fever, No. of Patients Experiencing the AE, 5y Max Grade 1: 4
  Fever, No. of Patients Experiencing the AE, 5y Max Grade 2: 7
  Fever, No. of Patients Experiencing the AE, 5y Max Grade 3: 0
  Fever, No. of Patients Experiencing the AE, 5y Max Grade 4: 0
  Fever, Percent: 5.3%
  Granulocytopenia, No. of Patients: 37
  Granulocytopenia, No. of Patients Experiencing the AE, 5y Max Grade 1: 16
  Granulocytopenia, No. of Patients Experiencing the AE, 5y Max Grade 2: 17
  Granulocytopenia, No. of Patients Experiencing the AE, 5y Max Grade 3: 3
  Granulocytopenia, No. of Patients Experiencing the AE, 5y Max Grade 4: 5
  Headache, No. of Patients: 7
  Headache, No. of Patients Experiencing the AE, 5y Max Grade 1: 4
  Headache, No. of Patients Experiencing the AE, 5y Max Grade 2: 3
  Headache, No. of Patients Experiencing the AE, 5y Max Grade 3: 0
  Headache, No. of Patients Experiencing the AE, 5y Max Grade 4: 0
  Headache, Percent: 3.3%
  Infection, No. of Patients: 7
  Infection, No. of Patients Experiencing the AE, 5y Max Grade 1: 4
  Infection, No. of Patients Experiencing the AE, 5y Max Grade 2: 3
  Infection, No. of Patients Experiencing the AE, 5y Max Grade 3: 0
  Infection, No. of Patients Experiencing the AE, 5y Max Grade 4: 0
  Infection, Percent: 3.3%
  Leukopenia, No. of Patients: 69
  Leukopenia, No. of Patients Experiencing the AE, 5y Max Grade 1: 26
  Leukopenia, No. of Patients Experiencing the AE, 5y Max Grade 2: 31
  Leukopenia, No. of Patients Experiencing the AE, 5y Max Grade 3: 10
  Leukopenia, No. of Patients Experiencing the AE, 5y Max Grade 4: 2
  Leukopenia, Percent: 33.0%
  Mucositis, No. of Patients: 52
  Mucositis, No. of Patients Experiencing the AE, 5y Max Grade 1: 23
  Mucositis, No. of Patients Experiencing the AE, 5y Max Grade 2: 15
  Mucositis, No. of Patients Experiencing the AE, 5y Max Grade 3: 11
  Mucositis, No. of Patients Experiencing the AE, 5y Max Grade 4: 3
  Nausea, No. of Patients: 91
  Nausea, No. of Patients Experiencing the AE, 5y Max Grade 1: 59
  Nausea, No. of Patients Experiencing the AE, 5y Max Grade 2: 19
  Nausea, No. of Patients Experiencing the AE, 5y Max Grade 3: 12
  Nausea, No. of Patients Experiencing the AE, 5y Max Grade 4: 1
  Pain Inject Site, No. of Patients: 24
  Pain Inject Site, No. of Patients Experiencing the AE, 5y Max Grade 1: 24
  Pain Inject Site, No. of Patients Experiencing the AE, 5y Max Grade 2: 0
  Pain Inject Site, No. of Patients Experiencing the AE, 5y Max Grade 3: 0
  Pain Inject Site, No. of Patients Experiencing the AE, 5y Max Grade 4: 0
  Pain, Abdominal, No. of Patients: 8
  Pain, Abdominal, No. of Patients Experiencing the AE, 5y Max Grade 1: 4
  Pain, Abdominal, No. of Patients Experiencing the AE, 5y Max Grade 2: 3
  Pain, Abdominal, No. of Patients Experiencing the AE, 5y Max Grade 3: 1
  Pain, Abdominal, No. of Patients Experiencing the AE, 5y Max Grade 4: 0
  Pain, Abdominal, Percent: 3.8%
  Rash, No. of Patients: 53
  Rash, No. of Patients Experiencing the AE, 5y Max Grade 1: 26
  Rash, No. of Patients Experiencing the AE, 5y Max Grade 2: 15
  Rash, No. of Patients Experiencing the AE, 5y Max Grade 3: 9
  Rash, No. of Patients Experiencing the AE, 5y Max Grade 4: 3
  Somnolence, No. of Patients: 9
  Somnolence, No. of Patients Experiencing the AE, 5y Max Grade 1: 7
  Somnolence, No. of Patients Experiencing the AE, 5y Max Grade 2: 2
  Somnolence, No. of Patients Experiencing the AE, 5y Max Grade 3: 0
  Somnolence, No. of Patients Experiencing the AE, 5y Max Grade 4: 0
  Somnolence, Percent: 4.3%
  Stomatitis, No. of Patients: 60
  Stomatitis, No. of Patients Experiencing the AE, 5y Max Grade 1: 32
  Stomatitis, No. of Patients Experiencing the AE, 5y Max Grade 2: 20
  Stomatitis, No. of Patients Experiencing the AE, 5y Max Grade 3: 7
  Stomatitis, No. of Patients Experiencing the AE, 5y Max Grade 4: 1
  Thrombocytopenia, No. of Patients: 94
  Thrombocytopenia, No. of Patients Experiencing the AE, 5y Max Grade 1: 26
  Thrombocytopenia, No. of Patients Experiencing the AE, 5y Max Grade 2: 31
  Thrombocytopenia, No. of Patients Experiencing the AE, 5y Max Grade 3: 16
  Thrombocytopenia, No. of Patients Experiencing the AE, 5y Max Grade 4: 21
  Thrombocytopenia, Percent: 45.0%
  Vomit, No. of Patients: 73
  Vomit, No. of Patients Experiencing the AE, 5y Max Grade 1: 32
  Vomit, No. of Patients Experiencing the AE, 5y Max Grade 2: 24
  Vomit, No. of Patients Experiencing the AE, 5y Max Grade 3: 12
  Vomit, No. of Patients Experiencing the AE, 5y Max Grade 4: 5
[3]
  effect of combination on individual drug pharmacokinetic parameters: without significant modifications of individual drug pharmacokinetic parameters
